Results published in US20050074834A1 (priority 2001, published 2005).
“Also recorded” adds a separate entry of the source.

Legend:
chromatophores [1] = tested on: chromatophores
erythrophores = assay type: cell-based
[2] = tested on: Betta splendens erythrophores; assay type: cell-based
chromatophores [3] = assay: cells; conditions: read-out: Threshold concentration PPM
melanophores = assay type: cell-based
iridophores = assay type: cell-based
fish chromatophores = assay type: cell-based

With `c1ccc2cc3c(ccc4ccccc43)cc2c1` [1,2-Benzanthracene] the “Threshold concentration PPM” value (chromatophores [1]) was “X (key: X=1 to 100 PPM; XX=100 to 1000 PPM)” and the “Chromatophore response Erythrophores” value (erythrophores) was “Imp”.

`CNc1ccc2oc(C[C@H]3O[C@@]4(CC[C@H]3C)O[C@H]([C@H](C)C(=O)c3ccc[nH]3)[C@H](C)C[C@H]4C)nc2c1C(=O)O` [A23187] was tested, and the “Morphology Effect: Aggregation” value [2] was “No” and the “Morphology Effect: Dispersion” value [2] was “No”.

In the case of `c1cc2c3c(cccc3c1)CC2` [Acenapthene], the “Threshold concentration PPM” value (chromatophores [1]) is reported as “X (key: X=1 to 100 PPM; XX=100 to 1000 PPM)” and the “Chromatophore response Erythrophores” value (erythrophores) is reported as “Imp”.

Work on `CC(=O)OCC[N+](C)(C)C` [Acetylcholine] yielded a minimal effective concentration (chromatophores [3]) of 1 to 100 µg/mL.

For `Nc1ncnc2c1ncn2[C@@H]1O[C@H](CO)[C@@H](O)[C@H]1O` [Adenosine], the minimal effective concentration (chromatophores [3]) was 100 to 1000 µg/mL and the “Chromatophore response (cell spans the chromatophore type columns)” value (chromatophores [1]) was “Disp”.

In the case of `[Ag]` [Ag], the “Chromatophore response (cell spans the chromatophore type columns)” value (chromatophores [1]) is reported as “Imp. (FS)” and the “Threshold concentration PPT” value (chromatophores [1]) is reported as “X (key: X=1 PPT or higher)”.

With `N` [Ammonium] the “Chromatophore response (cell spans the chromatophore type columns)” value (chromatophores [1]) was “Imp. (FS)” and the “Threshold concentration PPM” value (chromatophores [1]) was “XX (key: X=1 to 100 PPM; XX=100 to 1000 PPM)”.

`CC(N)Cc1ccccc1` (centres unmarked) [Amphetamine] was tested, and the minimal effective concentration (chromatophores [3]) was 1 to 100 µg/mL and the “Chromatophore response (cell spans the chromatophore type columns)” value (chromatophores [1]) was “Aggr. (FS)”.

With `CC(=O)OCOC(=O)CN(CC(=O)OCOC(C)=O)c1ccccc1OCCOc1ccccc1N(CC(=O)OCOC(C)=O)CC(=O)OCOC(C)=O` [BAPTA/AM] the “Morphology Effect: Aggregation” value [2] was “No”, the “Morphology Effect: Dispersion” value [2] was “Yes” and the “erythrophore pigment response on addition” value [2] was “pigment dispersion”.

In the case of `COC(=O)C1=C(C)NC(C)=C([N+](=O)[O-])C1c1ccccc1C(F)(F)F` (centres unmarked) [Bay K8644], the “erythrophore pigment response on direct application” value [2] is reported as “neither the aggregation nor dispersion of erythrophore pigment”.

For `C=C(C=O)C[C@@H]1C[C@H](O)[C@]2(C)O[C@@H]3C[C@@H]4O[C@@H]5C[C@]6(C)O[C@]7(C)CC[C@@H]8O[C@@H]9C[C@]%10(C)O[C@@H]%11C(C)=CC(=O)O[C@H]%11C[C@H]%10O[C@H]9C[C@@H](C)[C@H]8O[C@H]7C[C@H]6O[C@H]5C/C=C\[C@H]4O[C@H]3C[C@H]2O1` [Brevetoxin], the “Chromatophore response (cell spans the chromatophore type columns)” value (chromatophores [1]) was “Aggr. (FS)”, the “Response time Hr.” value (chromatophores [1]) was “X (key: X=1-6 hr; XX=6-24 hr)” and the “Threshold concentration PPM” value (chromatophores [1]) was “X (key: X=1 to 100 PPM; XX=100 to 1000 PPM)”.

`CCCCCCC(C)(C)c1ccc([C@@H]2C[C@H](O)CC[C@H]2CCCO)c(O)c1` [Cannabinoid CP-55940, CP-55940] was tested, and the “Chromatophore response (cell spans the chromatophore type columns)” value (chromatophores [1]) was “Disp. (FS)”.

For `COc1cc(CNC(=O)CCCC/C=C/C(C)C)ccc1O` [Capsaicin], the minimal effective concentration (chromatophores [3]) was 1 to 100 µg/mL and the “Chromatophore response Melanophores” value (melanophores) was “Hollow-”.

`COc1cc2c(c(OC)c1OC)-c1ccc(OC)c(=O)cc1[C@@H](NC(C)=O)CC2` [Colchicine] was tested, and the minimal effective concentration (chromatophores [3]) was 100 to 1000 µg/mL.

With `[Cu]` [Cu] the “Chromatophore response (cell spans the chromatophore type columns)” value (chromatophores [1]) was “Imp. (FS)” and the “Threshold concentration PPT” value (chromatophores [1]) was “X (key: X=1 PPT or higher)”.

In the case of `C=CC[C@@H](CC/C(C)=C/C=C/CC/C=C\[C@@H]1CSC([C@@H]2C[C@@H]2C)=N1)OC` [Curacin A], the “Chromatophore response (cell spans the chromatophore type columns)” value (chromatophores [1]) is reported as “Aggr. and Imp. (FS)”, the “Response time Hr.” value (chromatophores [1]) is reported as “X (key: X=1-6 hr; XX=6-24 hr)” and the “Threshold concentration PPM” value (chromatophores [1]) is reported as “X (key: X=1 to 100 PPM; XX=100 to 1000 PPM)”.

With `C=C1[C@@H](C)[C@H]2[C@H](Cc3ccccc3)NC(=O)[C@]23[C@H](OC(C)=O)/C=C/[C@@](C)(O)C(=O)[C@@H](C)C/C=C/[C@H]3[C@@H]1O` [Cytochalasin D] the “Threshold concentration PPM” value (chromatophores [1]) was “XX (key: X=1 to 100 PPM; XX=100 to 1000 PPM)” and the “Chromatophore response Melanophores” value (melanophores) was “Imp”.

With `CNCCCN1c2ccccc2CCc2ccccc21` [Desipramine] the minimal effective concentration (chromatophores [3]) was 1 to 100 µg/mL and the “Chromatophore response (cell spans the chromatophore type columns)” value (chromatophores [1]) was “Aggr. (FS)”.

For `COP(=O)(OC)OC=C(Cl)Cl` [Dichlorvos], the “Response time Hr.” value (chromatophores [1]) was “X (key: X=1-6 hr; XX=6-24 hr)”, the “Chromatophore response Erythrophores” value (erythrophores) was “Imp. (FS)” and the “Chromatophore response Iridophores” value (iridophores) was “Hue change, then Imp”.

For `NCCc1ccc(O)c(O)c1` [Dopamine], the minimal effective concentration (chromatophores [3]) was 100 to 1000 µg/mL and the “Chromatophore response (cell spans the chromatophore type columns)” value (chromatophores [1]) was “Aggr. (FS)”.

With `CCOP(=S)(Oc1ccc([N+](=O)[O-])cc1)c1ccccc1` (centres unmarked) [EPN] the “Response time Hr.” value (chromatophores [1]) was “X (key: X=1-6 hr; XX=6-24 hr)” and the “Threshold concentration PPM” value (chromatophores [1]) was “XX (key: X=1 to 100 PPM; XX=100 to 1000 PPM)”.

Work on `c1ccc2c(c1)-c1cccc3cccc-2c13` [Fluoranthene] yielded a minimal effective concentration (chromatophores [3]) of 1 to 100 µg/mL.

`C=O` [Formaldehyde] showed a minimal effective concentration (chromatophores [3]) of 100 to 1000 µg/mL.

`O=S(=O)(NCCNC/C=C/c1ccc(Br)cc1)c1cccc2cnccc12` [H89] was tested, and the “chromatophore response in the absence of forskolin” value (fish chromatophores) was “aggregate; also recorded: aggregation” and the “chromatophore response in the presence of forskolin” value (fish chromatophores) was “continues to be responsive; also recorded: still results in cell aggregation”.

Compound `NCCc1c[nH]cn1` [Histamine] has a minimal effective concentration (chromatophores [3]) of 100 to 1000 µg/mL.
